# Reference: ChEMBL document CHEMBL4396894, “The photodynamic activities of dimethyl 131-[2-(guanidinyl)ethylamino] chlorin e6 photosensitizers in A549 tumor” (Eur J Med Chem, 2019)
# The source made the active and inactive calls. The calls are words filed in the database; no cut-off is given here.
# Columns and labels:
# A549 [1] = assay: Photodynamic antitumor activity against human A549 cells xenografted in BALB/c nude mouse assessed as increase in apoptosis at 0.15 mg/kg, iv irradiated with laser light at 120 J/cm2 measured 24 hrs post light irradiation by TUNEL staining based histological analysis; type: functional, organism-based
# A549 [2] = assay: Photodynamic cytotoxicity against human A549 cells assessed as reduction in cell viability preincubated for 24 hrs followed by compound washout and subsequent 650 nanometer laser light irradiation at 0.5 to 2 J/cm2 measured by MTT assay; type: functional, cell-based
# [3] = Drug localization in endoplasmic reticulum of human A549 cells at 1 uM after 4 hrs by DiOC6(3) ER-tracker green based laser confocal microscopic analysis; type: ADME, subcellular; settings: a549, 4 h
# [4] = Drug localization in mitochondria of human A549 cells at 1 uM after 4 hrs by mito-tracker green based laser confocal microscopic analysis; type: ADME; settings: a549, 4 h
# A549 [5] = assay: Dark toxicity in human A549 cells xenografted in BALB/c nude mouse assessed as increase in limb tumor tissue damage at 0.15 mg/kg, iv measured 24 hrs post treatment by H and E staining based histological assay; type: organism-based; settings: in vivo
# A549 [6] = assay: Photodynamic antitumor activity against human A549 cells xenografted in BALB/c nude mouse assessed as increase in apoptosis at 0.15 mg/kg, iv irradiated with laser light at 120 J/cm2 measured 24 hrs post light irradiation by H and E staining based histological analysis; type: functional, organism-based
# A549 [7] = assay: Dark toxicity in human A549 cells xenografted in BALB/c nude mouse assessed as reduction in tumor growth at 0.15 mg/kg, iv measured up to 14 days; type: organism-based; settings: in vivo, 336 h
# A549 [8] = assay: Dark toxicity in human A549 cells xenografted in BALB/c nude mouse assessed as increase in limb tumor tissue damage at 0.15 mg/kg, iv measured 24 hrs post treatment by TUNEL staining based histological assay; type: organism-based; settings: in vivo
# A549 [9] = assay: Photodynamic antitumor activity against human A549 cells xenografted in BALB/c nude mouse assessed as decrease in tumor growth at 0.15 mg/kg, iv irradiated with laser light at 120 J/cm2 measured up to 14 days; type: functional, organism-based
# A549 [10] = assay: Photodynamic cytotoxicity against human A549 cells assessed as reduction in cell viability preincubated for 24 hrs followed by compound washout and subsequent 650 nanometer laser light irradiation at 1 J/cm2 measured by MTT assay; type: functional, cell-based; settings: A549, light or radiation study
# [11] = Emission property of a compound in DMSO assessed as red shift at 5 uM by 3D fluorescence spectra analysis; type: physicochemical
# [12] = Photobleaching property of the compound in DMSO at 10 uM irradiated with 650 nm laser light measured up to 90 mins by absorption spectra analysis
# [13] = Drug localization in lysosome of human A549 cells at 1 uM after 4 hrs by lyso-tracker blue based laser confocal microscopic analysis; type: ADME, subcellular; settings: a549, 4 h
# [14] = Drug uptake in human A549 cells measured after 1 to 24 hrs by fluorescence spectrophotometry; type: ADME, cell-based
# A549 [15] = assay: Photodynamic antitumor activity against human A549 cells xenografted in BALB/c nude mouse assessed as tumor growth inhibition at 0.4 mg/kg, iv irradiated with laser light at 120 J/cm2 measured up to 14 days; type: functional; settings: A549, light or radiation study, 336 h, read-out: TGI
# A549 [16] = assay: Photodynamic antitumor activity against human A549 cells xenografted in BALB/c nude mouse assessed as increase in necrosis at 0.15 mg/kg, iv irradiated with laser light at 120 J/cm2 measured 24 hrs post light irradiation by H and E staining based histological analysis; type: functional, organism-based
# A549 [17] = assay: Dark toxicity in human A549 cells assessed as reduction in cell viability at 0.1 to 0.9 uM after 24 hrs by MTT assay; type: cell-based; settings: a549, 24 h
# A549 [18] = assay: Photodynamic antitumor activity against human A549 cells xenografted in BALB/c nude mouse assessed as increase in necrosis at 0.15 mg/kg, iv irradiated with laser light at 120 J/cm2 measured 24 hrs post light irradiation by TUNEL staining based histological analysis; type: functional, organism-based
# [19] = Absorption property of the compound in DMSO assessed as maximum absorption wavelength at 1 to 20 uM by UV-Vis spectra analysis; type: physicochemical
# A549 [20] = assay: Induction of intracellular ROS generation in human A549 cells at 1 uM preincubated for 4 hrs followed by compound washout measured under 650 nanometer laser light irradiation at 2 J/cm2 by DCFDA dye-based fluorescence microscopic analysis; type: functional, cell-based
# A549 [21] = assay: Photodynamic antitumor activity against human A549 cells xenografted in BALB/c nude mouse assessed as increase in tumor tissue damage at 0.15 mg/kg, iv irradiated with laser light at 120 J/cm2 measured 24 hrs post light irradiation by TUNEL staining based histological analysis; type: functional, organism-based
# A549 [22] = assay: Photodynamic antitumor activity against human A549 cells xenografted in BALB/c nude mouse assessed as decrease in tumor weight at 0.15 mg/kg, iv irradiated with laser light at 120 J/cm2 measured 13 days post light irradiation; type: functional, organism-based
# A549 [23] = assay: Photodynamic cytotoxicity against human A549 cells assessed as reduction in cell viability preincubated for 24 hrs followed by compound washout and subsequent 650 nanometer laser light irradiation at 0.5 J/cm2 measured by MTT assay; type: functional, cell-based; settings: A549, light or radiation study
# A549 [24] = assay: Photodynamic cytotoxicity against human A549 cells assessed as reduction in cell viability preincubated for 24 hrs followed by compound washout and subsequent 650 nanometer laser light irradiation at 2 J/cm2 measured by MTT assay; type: functional, cell-based; settings: A549, light or radiation study
# A549 [25] = assay: Photodynamic antitumor activity against human A549 cells xenografted in BALB/c nude mouse assessed as increase in tumor tissue damage at 0.15 mg/kg, iv irradiated with laser light at 120 J/cm2 measured 24 hrs post light irradiation by H and E staining based histological analysis; type: functional, organism-based
# [26] = Induction of singlet oxygen generation in DMF solution assessed as singlet oxygen quantum yield irradiated with 650 nanometer laser light for 5 to 30 secs measured immediately by DPBF-based assay; type: functional
# A549 [27] = assay: Photodynamic cytotoxicity against human A549 cells assessed as reduction in cell viability at 0.1 to 0.9 uM preincubated for 24 hrs followed by compound washout and subsequent 650 nanometer laser light irradiation at 0.5 to 2 J/cm2 measured by MTT assay; type: functional, cell-based
Drug uptake [3],Drug uptake [4],Activity [11],Drug uptake [13],Drug uptake [14],Structure (SMILES),Activity (A549 [1]),Activity (A549 [2]),Activity (A549 [5]),Activity (A549 [6]),Activity (A549 [7]),Activity (A549 [8]),Activity (A549 [9]),IC50 (A549 [10]),Activity [12],inhibition in vivo at 0.4 mg/kg (A549 [15]),Activity (A549 [17]),Activity (A549 [22]),IC50 (A549 [23]),IC50 (A549 [24]),Activity [26],also measured
Active,Active,4 nm,Active,Active,C=Cc1c(C)c2cc3nc(c(CC(=O)OC)c4[nH]c(cc5nc(cc1[nH]2)C(C)=C5CC)c(C)c4C(=O)NCCN/C(=N\C(=O)OC(C)(C)C)NC(=O)OC(C)(C)C)[C@@H](CCC(=O)OC)[C@@H]3C,Active,Dose-dependent effect,Non-Toxic,Active,Non-Toxic,Non-Toxic,Active,397 nM,inactive,100%,Non-Toxic,Active,542 nM,197 nM,1.98,Activity (A549 [16]): Active; Activity (A549 [18]): Active; Activity [19]: 403 to 664 nm; Activity (A549 [20]): Active; Activity (A549 [21]): Active; Activity (A549 [25]): Active
Active,Active,4 nm,Active,Active,C=Cc1c(C)c2cc3nc(c(CC(=O)OC)c4[nH]c(cc5nc(cc1[nH]2)C(C)=C5CC)c(C)c4C(=O)NCCNC(=N)N)[C@@H](CCC(=O)OC)[C@@H]3C,Active,Dose-dependent effect,Non-Toxic,Active,Non-Toxic,Non-Toxic,Active,886 nM,inactive,100%,Non-Toxic,Active,1260 nM,545 nM,2.03,Activity (A549 [16]): Active; Activity (A549 [18]): Active; Activity [19]: 403 to 664 nm; Activity (A549 [20]): Active; Activity (A549 [21]): Active; Activity (A549 [25]): Active
,,,,,Oc1cccc(-c2c3nc(c(-c4cccc(O)c4)c4ccc([nH]4)c(-c4cccc(O)c4)c4nc(c(-c5cccc(O)c5)c5ccc2[nH]5)CC4)C=C3)c1 [TEMOPORFIN],,,,,Non-Toxic,,Active,779 nM,,,Non-Toxic,Active,1100 nM,702 nM,0.47 to 0.48,Activity (A549 [27]): Active
